# Measured values reported in PubChem BioAssay (NCI).
#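 Values below derive from 48-hour exposures of cells grown in 96-well plates, with endpoints linearly interpolated between the two concentrations bracketing the appropriate inhibition level. GI50 is the concentration that inhibits growth by half. TGI marks complete inhibition of growth.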
# What was measured:
# Experiment in all cases: NCI-60 cell line screen, 48 h
# A549 NSCLC = test system: A549 NSCLC
# NCI-H23 lung = test system: NCI-H23 lung
# SK-MEL-28 melanoma = test system: SK-MEL-28 melanoma
# MCF7 breast = test system: MCF7 breast
# OVCAR-5 ovarian = test system: OVCAR-5 ovarian
# U251 CNS = test system: U251 CNS
# K-562 leukemia = test system: K-562 leukemia
# HCT-116 colon = test system: HCT-116 colon
# SNB-19 CNS = test system: SNB-19 CNS
# RXF 393 renal = test system: RXF 393 renal
SMILES,TGI (A549 NSCLC),TGI (NCI-H23 lung),TGI (SK-MEL-28 melanoma),TGI (MCF7 breast),TGI (OVCAR-5 ovarian),TGI (U251 CNS),TGI (K-562 leukemia),TGI (HCT-116 colon),TGI (SNB-19 CNS),TGI (RXF 393 renal),GI50 (A549 NSCLC),GI50 (NCI-H23 lung),GI50 (RXF 393 renal),GI50 (SK-MEL-28 melanoma),GI50 (MCF7 breast),GI50 (U251 CNS),GI50 (K-562 leukemia),GI50 (SNB-19 CNS),GI50 (HCT-116 colon)
O=C(c1ccc(Cl)cc1Cl)N(C(=O)N1CCC(c2ccccc2)CC1)c1ccccc1,> 100 µM,> 100 µM,> 100 µM,> 100 µM,> 100 µM,> 100 µM,> 100 µM,> 100 µM,> 100 µM,–,–,–,–,–,–,–,–,–,–
CC#COP(=O)(OCC)OCC,> 100 µM,> 100 µM,–,–,> 100 µM,> 100 µM,> 100 µM,> 100 µM,> 100 µM,–,–,–,–,–,–,–,–,–,–
COc1cc(OCc2ccc3nc(-c4ccccc4)c(N)nc3c2)cc(OC)c1OC,61.2 µM,–,49 µM,56.8 µM,55.3 µM,> 100 µM,> 100 µM,21.1 µM,> 100 µM,77 µM,–,–,–,–,–,–,–,–,–
COc1ccc(/C=C2\OC(=O)C(Cl)=C2c2ccc(OC)cc2)cc1,> 100 µM,–,> 100 µM,–,–,> 100 µM,> 100 µM,–,> 100 µM,–,–,–,–,–,–,–,–,–,–
Cc1c(C#N)c2nnn(C)c(=O)n2c1-c1ccccc1,> 100 µM,> 100 µM,> 100 µM,> 100 µM,> 100 µM,> 100 µM,–,–,> 100 µM,> 100 µM,–,–,–,–,–,–,–,–,–
NS(=O)(=O)c1cc2c(cc1Cl)NC(C(=O)c1cc(=O)c3ccc(O)cc3o1)=NS2(=O)=O,> 100 µM,> 100 µM,> 100 µM,–,> 100 µM,> 100 µM,> 100 µM,> 100 µM,> 100 µM,> 100 µM,–,–,–,–,–,–,–,–,–
N#CC(C#N)=CN1CCN(C(=O)c2ccco2)C1=S,47.7 µM,22.5 µM,> 100 µM,28.4 µM,–,> 100 µM,> 100 µM,–,82 µM,6.6 µM,13.5 µM,5.78 µM,2.63 µM,12.5 µM,3.45 µM,6.54 µM,6.57 µM,38.7 µM,–
Cc1occc1C(=S)Nc1ccc(Cl)c(C(=O)OCC(F)(F)F)c1,58.4 µM,51.4 µM,42.6 µM,43 µM,> 100 µM,39.3 µM,59.1 µM,33.1 µM,43.9 µM,–,–,–,–,–,–,–,–,–,–
COc1cc(S(=O)(=O)Nc2ccc(-c3csc(N4C(=O)CSC4c4cccs4)n3)cc2)ccc1Cl (configuration not stated),> 100 µM,> 100 µM,39.5 µM,31.7 µM,> 100 µM,–,95.6 µM,> 100 µM,> 100 µM,25.5 µM,–,–,–,–,–,–,–,–,–
COc1cc2c(/C=C3/C(=O)Nc4ccc(Cl)cc43)c(Cl)n(Cc3ccccc3)c2cc1C,> 100 µM,7.46 µM,9.46 µM,> 100 µM,7.06 µM,–,> 100 µM,> 100 µM,8.98 µM,5.18 µM,–,–,–,–,–,–,–,–,–
O=c1c2cc(S(=O)(=O)Nc3ccccc3Cl)ccc2ncn1NS(=O)(=O)c1ccc(Br)cc1,> 37.5 µM,> 37.5 µM,> 37.5 µM,> 37.5 µM,> 37.5 µM,> 37.5 µM,> 37.5 µM,> 37.5 µM,> 37.5 µM,–,–,–,–,–,–,–,–,–,–
COc1ccccc1C1CC(=O)CC(c2ccccc2OC)C12C(=O)NC(=S)NC2=O (configuration not stated),–,> 100 µM,95.6 µM,> 100 µM,> 100 µM,> 100 µM,> 100 µM,> 100 µM,> 100 µM,> 100 µM,–,–,–,–,–,–,–,–,–
COc1ccc2c(c1)CC[C@@H]1[C@@H]2CC[C@]2(C)C(=O)C3(CCCCC3)C[C@@H]12,> 100 µM,> 100 µM,> 100 µM,–,–,> 100 µM,> 100 µM,> 100 µM,> 100 µM,> 100 µM,> 100 µM,> 100 µM,> 100 µM,> 100 µM,–,> 100 µM,> 100 µM,> 100 µM,> 100 µM
C=CCONC(=O)c1ccc(Cl)cc1,> 100 µM,> 100 µM,> 100 µM,–,> 100 µM,> 100 µM,> 100 µM,> 100 µM,> 100 µM,> 100 µM,–,–,–,–,–,–,–,–,–
COc1cc(/C=C\c2ccccn2)cc(OC)c1OC,> 100 µM,> 100 µM,> 100 µM,–,> 100 µM,> 100 µM,> 100 µM,> 100 µM,> 100 µM,> 100 µM,–,–,–,–,–,–,–,–,–
CC1=NC(=O)C(C)(c2ccccc2)N1CCc1ccccc1 (configuration not stated),> 100 µM,> 100 µM,–,> 100 µM,> 100 µM,> 100 µM,> 100 µM,> 100 µM,> 100 µM,> 100 µM,–,–,–,–,–,–,–,–,–
COc1cc2c(cc1OC)-c1[nH]c3ccc(C#N)cc3c1CC(=O)N2,> 100 µM,> 100 µM,> 100 µM,> 100 µM,> 24.7 µM,> 100 µM,–,–,> 100 µM,–,–,–,–,–,–,–,–,–,–
N#CC1(C#N)C2CCCCC23OC(=N)C1(C#N)C(c1ccco1)O3 (configuration not stated),> 100 µM,70.5 µM,45.6 µM,54 µM,61.8 µM,–,> 100 µM,38.5 µM,> 100 µM,59.1 µM,–,–,–,–,–,–,–,–,–
NC(=O)OCC(COc1ccc(Cl)cc1)OC(=O)c1ccccc1Cl (configuration not stated),75.8 µM,44.8 µM,37.7 µM,–,62.8 µM,27.6 µM,39.4 µM,30.7 µM,97.7 µM,25.7 µM,–,–,–,–,–,–,–,–,–
c1ccc(Nc2nnc(CSc3nc(-c4ccccc4)c(-c4ccccc4)[nH]3)s2)cc1,73.3 µM,45.1 µM,44.6 µM,–,43.6 µM,28.1 µM,–,35.7 µM,–,–,–,–,–,–,–,–,–,–,–
O=C1NC(N2CCOCC2)=N/C1=C\c1cccs1,> 100 µM,> 100 µM,> 100 µM,> 100 µM,> 100 µM,> 100 µM,–,> 100 µM,> 100 µM,> 100 µM,–,–,–,–,–,–,–,–,–
CCOC(=O)CSc1ccnc(=O)[nH]1,> 100 µM,–,–,–,> 100 µM,> 100 µM,> 100 µM,> 100 µM,> 100 µM,> 100 µM,–,–,–,–,–,–,–,–,–
CCCCc1ccc(Nc2nc(Cl)c3c(ncn3COCCOC(C)=O)n2)cc1,41 µM,35.6 µM,–,49.1 µM,37.5 µM,43.1 µM,51.8 µM,31.3 µM,46.1 µM,28.4 µM,–,–,–,–,–,–,–,–,–
